Test results taken from publication PMC9779606, “Synthesis, Structural Characterization and Biological Activity Evaluation of Novel Cu(II) Complexes with 3-(trifluoromethyl)phenylthiourea Derivatives” (International Journal of Molecular Sciences, 2022).
≈ marks a conversion by molar mass, not a printed value. Like-named read-outs stand apart in the source and are kept apart here.

What was measured:
[1] = system: SW480 (primary colon cancer); assay: Cytotoxicity, MTT assay; type: cell-based, human; settings: mean SD
Experimental: (§1) MTT assay was performed as previously described. Experiments were repeated three times. […] Decreased relative MTT level means decreased cell viability.

[2] = system: HaCaT (immortalized human keratinocytes); assay: Cytotoxicity, MTT assay; type: cell-based; settings: 72 h, normal cells, mean SD
Experimental: as §1

[3] = system: 30 clinically isolated strains of S. aureus and S. epidermidis; design: method as in PMID 28822236, PMID 29499458; settings: cited from earlier work
M. tuberculosis H37Rv = assay: Tuberculostatic activity, Microplate Alamar Blue Assay (MABA); type: cell-based, Mycobacterium tuberculosis; settings: Mycobacterium tuberculosis
[4] = system: M. tuberculosis Spec. 192; assay: as above; type: cell-based, Mycobacterium tuberculosis; settings: Mycobacterium tuberculosis
[5] = system: SW620 (metastatic colon cancer); assay: Cytotoxicity, MTT assay; type: cell-based, human; settings: 72 h, mean SD
Experimental: as §1

[6] = M. tuberculosis H37Rv, standard strain, MABA, read-out: MIC
[7] = M. tuberculosis Spec. 192, patient isolate fully sensitive to tuberculostatics, MABA, read-out: MIC

COc1cccc2c1C(=O)c1c(O)c3c(c(O)c1C2=O)C[C@@](O)(C(=O)CO)C[C@@H]3O[C@H]1C[C@H](N)[C@H](O)[C@H](C)O1 [Doxorubicin, doxorubicin, reference compound] gave an IC50 ([1]; Homo sapiens, SW480, 72 h) of 0.75 ± 0.1 µM and an IC50 ([2]; Homo sapiens, HaCaT) of 0.29 ± 0.11 µM.
For “complex with 1-1-(3,4-dichlorophenyl)-3-[3-(trifluoromethyl) phenyl]thiourea”, the MIC [3] is listed as 0.5 to 2 µg/mL.
In the case of [H]/N=C(/N)N[C@H]1[C@H](O)[C@@H](O)[C@H](O[C@@H]2O[C@@H](C)[C@](O)(C=O)[C@H]2O[C@@H]2O[C@@H](CO)[C@H](O)[C@@H](O)[C@@H]2NC)[C@@H](N/C(N)=N\[H])[C@@H]1O [Streptomycin (SM), Streptomycin, reference compound], the MIC (M. tuberculosis H37Rv; [6]) is reported as 1 µg/mL (≈ 1.72 µM) and the MIC [4, 7] is reported as 1 µg/mL (≈ 1.72 µM).
Compound CC[C@@H](CO)NCCN[C@@H](CC)CO [Ethambutol (EMB), Ethambutol, reference compound] has an MIC (M. tuberculosis H37Rv; [6]) of 2 µg/mL (≈ 9.79 µM) and an MIC [4, 7] of 2 µg/mL (≈ 9.79 µM).
N.N.[Cl][Pt][Cl] [Cisplatin, cisplatin, reference compound] showed an IC50 ([1]; 72 h) of 10.4 µM, an IC50 [5] of 6.7 ± 1.1 µM and an IC50 [2] of 6.3 ± 0.7 µM.
Work on NNC(=O)c1ccncc1 [Isoniazid (INH), Isoniazid, reference compound] yielded an MIC (M. tuberculosis H37Rv; H37RV) of 0.125 µg/mL (≈ 0.911 µM) and an MIC ([4]; SPEC.192) of 0.125 µg/mL (≈ 0.911 µM).
CO[C@H]1/C=C/O[C@@]2(C)Oc3c(C)c(O)c4c(O)c(c(/C=N/N5CCN(C)CC5)c(O)c4c3C2=O)NC(=O)/C(C)=C\C=C\[C@H](C)[C@H](O)[C@@H](C)[C@@H](O)[C@@H](C)[C@H](OC(C)=O)[C@@H]1C [Rifampicin (RMP), Rifampicin, reference compound] gave an MIC (M. tuberculosis H37Rv; [6]) of 1 µg/mL (≈ 1.22 µM) and an MIC [4, 7] of 1 µg/mL (≈ 1.22 µM).
